The source of these data is patent US9234000B2, “Benzylamine derivatives as inhibitors of plasma kallikrein” (KalVista Pharmaceuticals Limited, priority 2011, dated 2016).

Read-outs that look alike come from different tables or passages of the source.

One test has as its target Human plasma kallikrein (Homo sapiens (Human), UniProt P03952). The test is described as follows: Determination of the IC50 for plasma kallikrein. It is filed as biochemical. Particulars: 37° C., read-out: IC50 (human PKal). The method, boiled down: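 Residual activity (initial rate, absorbance at 410 nm) gave the IC50. Reactions at 37° C combined human plasma kallikrein, substrate H-DPro-Phe-Arg-AFC and a range of inhibitor concentrations.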

A further test has as its target Human KLK1 (Homo sapiens (Human), UniProt P06870). The test is described as follows: Determination of the IC50 for KLK1. Format: biochemical. Particulars: Human KLK1, 37° C., substrate H-DVal-Leu-Arg-AFC. The method, boiled down:
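IC50 values reflect residual human KLK1 activity, read as initial rate from optical absorbance change at 410 nm. Incubations ran at 37° C with H-DVal-Leu-Arg-AFC as substrate across a compound concentration series.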

Chain of Human plasma kallikrein (P03952 391-638): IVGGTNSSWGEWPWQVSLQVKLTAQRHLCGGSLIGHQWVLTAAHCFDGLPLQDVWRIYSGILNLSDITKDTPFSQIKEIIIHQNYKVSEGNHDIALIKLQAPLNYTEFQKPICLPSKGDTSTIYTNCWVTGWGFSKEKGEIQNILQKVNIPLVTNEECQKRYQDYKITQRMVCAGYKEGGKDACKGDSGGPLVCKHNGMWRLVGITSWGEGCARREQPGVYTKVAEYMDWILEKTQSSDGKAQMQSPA
Chain of Human plasma kallikrein (P03952 20-390 partner): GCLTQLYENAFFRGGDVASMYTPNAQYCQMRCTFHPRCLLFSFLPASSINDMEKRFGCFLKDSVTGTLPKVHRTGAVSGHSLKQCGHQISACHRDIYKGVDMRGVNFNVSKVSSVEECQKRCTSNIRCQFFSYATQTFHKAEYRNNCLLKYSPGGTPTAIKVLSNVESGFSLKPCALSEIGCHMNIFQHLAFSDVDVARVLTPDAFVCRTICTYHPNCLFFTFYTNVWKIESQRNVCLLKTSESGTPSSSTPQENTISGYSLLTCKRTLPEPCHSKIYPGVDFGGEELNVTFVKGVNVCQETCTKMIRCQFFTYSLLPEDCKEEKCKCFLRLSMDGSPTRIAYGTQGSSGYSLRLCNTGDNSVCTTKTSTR
Chain of Human KLK1 (P06870 25-262): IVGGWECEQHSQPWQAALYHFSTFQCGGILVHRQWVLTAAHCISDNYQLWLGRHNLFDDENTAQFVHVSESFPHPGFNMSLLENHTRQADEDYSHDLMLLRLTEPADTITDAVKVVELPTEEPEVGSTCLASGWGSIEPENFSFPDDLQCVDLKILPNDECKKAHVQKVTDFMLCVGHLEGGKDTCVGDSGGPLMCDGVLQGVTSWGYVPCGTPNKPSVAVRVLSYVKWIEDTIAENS

Regarding `CCOc1ccc(C[C@@H](NC(=O)c2ccco2)C(=O)N[C@@H](Cc2ccccc2)C(=O)NCc2ccc(CN)cc2)cc1` [Example 118, Furan-2-carboxylic acid [(R)-1-[(S)-1-(4-aminomethyl-benzylcarbamoyl)-2-phenyl-ethylcarbamoyl]-2-(4-ethoxy-phenyl)-ethyl]-amide], the IC50 at Human plasma kallikrein (substrate H-DPro-Phe-Arg-AFC) was 61 nM; against Human KLK1 (Table 13), > 10000 nM.
Turning to `NCc1ccc(CNC(=O)[C@H](Cc2ccccc2)NC(=O)[C@@H](Cc2ccccc2)NC(=O)c2ccccc2)cc1` [Example 139, N-{(R)-1-[(S)-1-(4-Aminomethyl-benzylcarbamoyl)-2-phenyl-ethylcarbamoyl]-2-phenyl-ethyl}-benzamide], the values for the IC50 on Human plasma kallikrein (substrate H-DPro-Phe-Arg-AFC) and against Human KLK1 (Table 13) were 1140 nM and > 10000 nM, respectively.
For `CN(CCO)[C@H](CC1CCCCC1)C(=O)N[C@@H](Cc1ccccc1)C(=O)NCc1ccc(CN)cc1` [Example 49, (R)-N-[(S)-1-(4-Aminomethyl-benzylcarbamoyl)-2-phenyl-ethyl]-3-cyclohexyl-2-[(2-hydroxy-ethyl)-methyl-amino]-propionamide], the IC50 on Human plasma kallikrein (fluorogenic substrate H-DPro-Phe-Arg-AFC) is 2200 nM; at Human KLK1 (Table 12), > 10000 nM.
For the compound `CCOc1ccc(C[C@@H](NC(=O)c2nc(C)oc2C)C(=O)N[C@@H](Cc2ccccc2)C(=O)NCc2ccc(CN)cc2)cc1` [Example 113, 2,5-Dimethyl-oxazole-4-carboxylic acid [(R)-1-[(S)-1-(4-aminomethyl-benzylcarbamoyl)-2-phenyl-ethylcarbamoyl]-2-(4-ethoxy-phenyl)-ethyl]-amide], the IC50 on Human plasma kallikrein (substrate H-DPro-Phe-Arg-AFC) was 455 nM; at Human KLK1 (Table 13) it was > 10000 nM.
For `CCOc1ccc(C[C@@H](NC(=O)c2cc(C)nn2C)C(=O)N[C@@H](Cc2ccccc2)C(=O)NCc2ccc(CN)cc2)cc1` [Example 82, 2,5-Dimethyl-2H-pyrazole-3-carboxylic acid [(R)-1-[(S)-1-(4-aminomethyl-benzylcarbamoyl)-2-phenyl-ethylcarbamoyl]-2-(4-ethoxy-phenyl)-ethyl]-amide], in that order: 539 nM and > 10000 nM.
For `CCOc1ccc(C[C@@H](NC(=O)c2cccs2)C(=O)N[C@@H](Cc2ccc(Cl)c(Cl)c2)C(=O)NCc2ccc(CN)cc2)cc1` [Example 169, Thiophene-2-carboxylic acid [(R)-1-[(S)-1-(4-aminomethyl-benzylcarbamoyl)-2-(3,4-dichloro-phenyl)-ethylcarbamoyl]-2-(4-ethoxy-phenyl)-ethyl]-amide], in that order: 44 nM and 9900 nM.
For `COc1ccc(C[C@@H](NC(=O)c2ccccc2)C(=O)N[C@@H](Cc2ccccc2)C(=O)NCc2ccc(CN)cc2)cc1` [Example 138, N-[(R)-1-[(S)-1-(4-Aminomethyl-benzylcarbamoyl)-2-phenyl-ethylcarbamoyl]-2-(4-methoxy-phenyl)-ethyl]-benzamide], in that order: 310 nM and > 10000 nM.
`CCOc1ccc(C[C@@H](NC(=O)CNS(=O)(=O)c2ccc(C)cc2)C(=O)N[C@@H](Cc2ccccc2)C(=O)NCc2ccc(CN)cc2)cc1` [Example 101, (S)-N-(4-Aminomethyl-benzyl)-2-{(R)-3-(4-ethoxy-phenyl)-2-[2-(toluene-4-sulfonylamino)-acetylamino]-propionylamino}-3-phenyl-propionamide]: the concentration for half-maximal inhibition (IC50) on Human plasma kallikrein (substrate H-DPro-Phe-Arg-AFC) was 1110 nM; at Human KLK1 (Table 13), > 10000 nM.
For `CCOc1ccc(C[C@@H](NC(=O)CC(F)(F)F)C(=O)N[C@@H](Cc2ccc(Cl)c(Cl)c2)C(=O)NCc2ccc(CN)cc2)cc1` [Example 172, N-[(R)-1-[(S)-1-(4-Aminomethyl-benzylcarbamoyl)-2-(3,4-dichloro-phenyl)-ethylcarbamoyl]-2-(4-ethoxy-phenyl)-ethyl]-3,3,3-trifluoro-propionamide], the half-inhibitory concentration (IC50) is 881 nM at Human plasma kallikrein (substrate H-DPro-Phe-Arg-AFC) and > 10000 nM against Human KLK1 (Table 13).
